# Experimental data: patent US7902227B2, “C-7 isoxazolinyl quinolone / naphthyridine derivatives useful as antibacterial agents” (Janssen Pharmaceutica NV., priority 2008, dated 2011)
# Assays:
# Assay type in all cases: cell-based
# [1] = test system: strain C, fluoroquinolone-resistant clinical isolate of Streptococcus pneumoniae; assay: In vitro antibacterial activity (MIC), microdilution broth method (NCCLS), strain C; conditions: read-out: In vitro Antibacterial Activity MIC, C
# Experimental: (§1) Minimal inhibitory concentration (MIC) has been an indicator of in vitro antibacterial activity widely used in the art. The in vitro antimicrobial activity of representative compounds of the present invention was determined by the microdilution broth method following the test method from the National Committee for Clinical Laboratory Standards (NCCLS). This method is described in the NCCLS Document M7-A4, Vol. 17, No. 2, “Methods for Dilution Antimicrobial Susceptibility Test for Bacteria that Grow Aerobically—Fourth Edition”, which is incorporated herein by reference.
# (§2) In this method two-fold serial dilutions of drug in cation adjusted Mueller-Hinton broth are added to wells in microdilution trays. The test organisms are prepared by adjusting the turbidity of actively growing broth cultures so that the final concentration of test organism after it is added to the wells is approximately 5×10^4 CFU/well.
# (§3) Following inoculation of the microdilution trays, the trays are incubated at 35° C. for 16-20 hours and then read. […] The amount of growth in the wells containing the test compound is compared with the amount of growth in the growth-control wells (no test compound) used in each tray. As set forth in Table 4, representative compounds of the present invention were tested against a variety of pathogenic bacteria resulting in a range of activities depending on the organism tested.
# [2] = test system: Streptococcus pneumoniae ATCC 49619; assay: In vitro antibacterial activity (MIC), microdilution broth method (NCCLS), strain E; conditions: ATCC49619, 35° C., 16-20 hours
# Experimental: as §1, §2, §3
# [3] = test system: Staphylococcus aureus OC4172; assay: In vitro antibacterial activity (MIC), microdilution broth method (NCCLS), strain A; conditions: cation adjusted Mueller-Hinton broth, 35° C., 16-20 hours
# Experimental: as §1, §2, §3
# [4] = test system: strain D, fluoroquinolone-resistant clinical isolate of Streptococcus pneumoniae; assay: In vitro antibacterial activity (MIC), microdilution broth method (NCCLS), strain D; conditions: read-out: In vitro Antibacterial Activity MIC, D
# Experimental: as §1, §2, §3
# [5] = test system: strain B, fluoroquinolone-resistant clinical isolate of Streptococcus pneumoniae; assay: In vitro antibacterial activity (MIC), microdilution broth method (NCCLS), strain B; conditions: read-out: In vitro Antibacterial Activity MIC, B
# Experimental: as §1, §2, §3
Compound,MIC [1],MIC [2],MIC [3],MIC [4],MIC [5]
"CCOC(=O)C1=NOC2CN(c3nc4c(cc3F)c(=O)c(C(=O)O)cn4-c3ccc(F)cc3F)CC12 (stereo not shown) [ID No. 106, 1-(2,4-Difluoro-phenyl)-7-(3-ethoxycarbonyl-3a,4,6,6a-tetrahydro-pyrrolo[3,4-d]isoxazol-5-yl)-6-fluoro-4-oxo-1,4-dihydro-[1,8]naphthyridine-3-carboxylic acid]",> 16 µg/mL,8 µg/mL,0.12 µg/mL,> 16 µg/mL,> 16 µg/mL
"CCOC(=O)C1=NOC2CN(c3c(F)cc4c(=O)c(C(=O)O)cn5c4c3OC[C@@H]5C)CC12 (stereo partly drawn) [ID No. 131, 7-[cis-3-(ethoxycarbonyl)-3a,4,6,6a-tetrahydropyrrolo[3,4-d]isoxazol-5-yl]S-(−)-9,10-difluoro-2,3-dihydro-3-methyl-7-oxo-7H-pyrido-[1,2,3-de][1,4]-benzoxazine-6-carboxylic acid]",> 16 µg/mL,16 µg/mL,1 µg/mL,> 16 µg/mL,> 16 µg/mL
"O=C(O)c1cn(C2CC2)c2nc(N3CC4ON=C(c5ccccn5)C4C3)c(F)cc2c1=O (stereo not shown) [ID No. 113, 1-Cyclopropyl-6-fluoro-4-oxo-7-(3-pyridin-2-yl-3a,4,6,6a-tetrahydro-pyrrolo[3,4-d]isoxazol-5-yl)-1,4-dihydro-[1,8]naphthyridine-3-carboxylic acid]",2 µg/mL,1 µg/mL,0.06 µg/mL,4 µg/mL,16 µg/mL
"COc1c(N2C[C@@H]3ON=C(c4ccc(C(F)(F)F)nc4)[C@@H]3C2)c(F)cc2c(=O)c(C(=O)O)cn(C3CC3)c12 (relative stereo) [ID No. 121, 7-[cis-3-(6-Trifluoromethyl-3-pyridyl)-3a,4,6,6a-tetrahydropyrrolo[3,4-d]isoxazol-5-yl]-1-cyclopropyl-8-methoxy-6-fluoro-4-oxo-1,4-dihydroquinoline-3-carboxylic acid]",> 16 µg/mL,4 µg/mL,0.25 µg/mL,8 µg/mL,0.16 µg/mL
"COc1ccc(C2=NOC3CN(c4c(F)cc5c(=O)c(C(=O)O)cn([C@@H]6C[C@@H]6F)c5c4OC)CC23)cc1 (relative stereo) [ID No. 126, 7-[cis-3-(4-Methoxyphenyl)-3a,4,6,6a-tetrahydropyrrolo[3,4-d]isoxazol-5-yl]-1-[(1R,2S)-2-fluorocyclopropyl]-6-fluoro-8-methoxy-4-oxo-1,4-dihydro-quinoline-3-carboxylic acid]",4 µg/mL,0.5 µg/mL,0.03 µg/mL,2 µg/mL,
"O=C(O)c1cn(-c2ccc(F)cc2F)c2nc(N3CC4ON=C(c5ccccn5)C4C3)c(F)cc2c1=O (stereo not shown) [ID No. 104, 1-(2,4-Difluoro-phenyl)-6-fluoro-4-oxo-7-(3-pyridin-2-yl-3a,4,6,6a-tetrahydro-pyrrolo[3,4-d]isoxazol-5-yl)-1,4-dihydro-[1,8]naphthyridine-3-carboxylic acid]",2 µg/mL,1 µg/mL,0.06 µg/mL,4 µg/mL,0.5 µg/mL
C[C@H]1COc2c(N3CC4ON=C(c5ccccn5)C4C3)c(F)cc3c(=O)c(C(=O)O)cn1c23 (stereo partly shown) [ID No. 129],16 µg/mL,1 µg/mL,0.06 µg/mL,4 µg/mL,> 16 µg/mL
"O=C(O)c1cn(-c2ccc(F)cc2F)c2nc(N3CC4ON=C(CN5C(=O)c6ccccc6C5=O)C4C3)c(F)cc2c1=O (stereo not shown) [ID No. 108, 1-(2,4-Difluoro-phenyl)-7-[3-(1,3-dioxo-1,3-dihydro-isoindol-2-ylmethyl)-3a,4,6,6a-tetrahydro-pyrrolo[3,4-d]isoxazol-5-yl]-6-fluoro-4-oxo-1,4-dihydro-[1,8]naphthyridine-3-carboxylic acid]",> 16 µg/mL,8 µg/mL,0.25 µg/mL,> 16 µg/mL,> 16 µg/mL
"CCOC(=O)C1=NOC2CN(c3nc4c(cc3F)c(=O)c(C(=O)O)cn4C3CC3)CC12 (stereo not shown) [ID No. 116, 1-Cyclopropyl-7-(3-ethoxycarbonyl-3a,4,6,6a-tetrahydro-pyrrolo[3,4-d]isoxazol-5-yl)-6-fluoro-4-oxo-1,4-dihydro-[1,8]naphthyridine-3-carboxylic acid]",> 16 µg/mL,4 µg/mL,0.12 µg/mL,> 16 µg/mL,> 16 µg/mL
"COc1ccc(C2=NOC3CN(c4nc5c(cc4F)c(=O)c(C(=O)O)cn5-c4ccc(F)cc4F)CC23)cn1 (stereo not shown) [ID No. 102, 1-(2,4-Difluoro-phenyl)-6-fluoro-7-[3-(6-methoxy-pyridin-3-yl)-3a,4,6,6a-tetrahydro-pyrrolo[3,4-d]isoxazol-5-yl]-4-oxo-1,4-dihydro-[1,8]naphthyridine-3-carboxylic acid]",16 µg/mL,1 µg/mL,0.06 µg/mL,2 µg/mL,4 µg/mL
"COc1ccc(C2=NOC3CN(c4cc5c(cc4F)c(=O)c(C(=O)O)cn5C4CC4)CC23)cn1 (stereo not shown) [ID No. 134, 1-Cyclopropyl-6-fluoro-7-[3-(6-methoxy-pyridin-3-yl)-3a,4,6,6a-tetrahydro-pyrrolo[3,4-d]isoxazol-5-yl]-4-oxo-1,4-dihydro-quinoline-3-carboxylic acid]",> 16 µg/mL,2 µg/mL,0.12 µg/mL,8 µg/mL,16 µg/mL
"CCOC(=O)C1=NOC2CN(c3c(F)cc4c(=O)c(C(=O)O)cn(C5CC5)c4c3OC)CC12 (stereo not drawn) [ID No. 124, 7-[cis-3-(3-Ethoxycarbonyl)-3a,4,6,6a-tetrahydropyrrolo[3,4-d]isoxazol-5-yl]-1-cyclopropyl-8-methoxy-6-fluoro-4-oxo-1,4-dihydroquinoline-3-carboxylic acid]",> 16 µg/mL,8 µg/mL,0.25 µg/mL,> 16 µg/mL,> 16 µg/mL
COc1c(N2CC3ON=C(CN)C3C2)c(F)cc2c(=O)c(C(=O)O)cn(C3CC3)c12 (stereo not shown) [ID No. 202],16 µg/mL,1 µg/mL,0.06 µg/mL,> 16 µg/mL,
"C[C@H]1COc2c(N3CC4ON=C(c5cccnc5)C4C3)c(F)cc3c(=O)c(C(=O)O)cn1c23 (stereo partly drawn) [ID No. 130, 7-[cis-3-(3-pyridyl)-3a,4,6,6a-tetrahydropyrrolo[3,4-d]isoxazol-5-yl]S-(−)-9,10-difluoro-2,3-dihydro-3-methyl-7-oxo-7H-pyrido-[1,2,3-de][1,4]-benzoxazine-6-carboxylic acid]",16 µg/mL,2 µg/mL,0.25 µg/mL,16 µg/mL,
"COc1ccc(C2=NOC3CN(c4c(F)cc5c(=O)c(C(=O)O)cn6c5c4OC[C@@H]6C)CC23)cc1 (stereo partly drawn) [ID No. 128, 7-[cis-3-(4-Methoxyphenyl)-3a,4,6,6a-tetrahydropyrrolo[3,4-d]isoxazol-5-yl]S-(−)-9,10-difluoro-2,3-dihydro-3-methyl-7-oxo-7H-pyrido-[1,2,3-de][1,4]-benzoxazine-6-carboxylic acid]",4 µg/mL,1 µg/mL,0.12 µg/mL,4 µg/mL,
COc1c(N2CC3ON=C(CN)C3C2)c(F)cc2c(=O)c(C(=O)O)cn([C@@H]3C[C@@H]3F)c12 (stereo partly shown) [ID No. 203],> 16 µg/mL,2 µg/mL,0.12 µg/mL,> 16 µg/mL,
"O=C(O)c1cn(C2CC2)c2nc(N3CC4ON=C(c5ccc(Cl)cc5)C4C3)c(F)cc2c1=O (stereo not shown) [ID No. 110, 7-[3-(4-Chloro-phenyl)-3a,4,6,6a-tetrahydro-pyrrolo[3,4-d]isoxazol-5-yl]-1-cyclopropyl-6-fluoro-4-oxo-1,4-dihydro-[1,8]naphthyridine-3-carboxylic acid]",8 µg/mL,0.5 µg/mL,0.06 µg/mL,,
"COc1ccc(C2=NOC3CN(c4c(F)cc5c(=O)c(C(=O)O)cn(-c6nc(N)c(F)cc6F)c5c4Cl)CC23)cc1 (stereo not shown) [ID No. 133, 1-(6-Amino-3,5-difluoro-pyridin-2-yl)-8-chloro-6-fluoro-7-[3-(4-methoxy-phenyl)-3a,4,6,6a-tetrahydro-pyrrolo[3,4-d]isoxazol-5-yl]-4-oxo-1,4-dihydro-quinoline-3-carboxylic acid]",8 µg/mL,2 µg/mL,0.25 µg/mL,16 µg/mL,
C[C@H]1COc2c(N3CC4ON=C(CN)C4C3)c(F)cc3c(=O)c(C(=O)O)cn1c23 (stereo partly shown) [ID No. 204],> 16 µg/mL,16 µg/mL,0.25 µg/mL,> 16 µg/mL,
"COc1ccc(C2=NO[C@H]3CN(c4c(F)cc5c(=O)c(C(=O)O)cn(C6CC6)c5c4OC)C[C@@H]23)cc1 (relative stereo) [ID No. 120, 7-[cis-3-(4-Methoxyphenyl)-3a,4,6,6a-tetrahydropyrrolo[3,4-d]isoxazol-5-yl]-1-cyclopropyl-8-methoxy-6-fluoro-4-oxo-1,4-dihydroquinoline-3-carboxylic acid]",4 µg/mL,1 µg/mL,0.06 µg/mL,2 µg/mL,
"O=C(O)c1cn(C2CC2)c2nc(N3CC4ON=C(c5cccnc5)C4C3)c(F)cc2c1=O (stereo not shown) [ID No. 114, 1-Cyclopropyl-6-fluoro-4-oxo-7-(3-pyridin-3-yl-3a,4,6,6a-tetrahydro-pyrrolo[3,4-d]isoxazol-5-yl)-1,4-dihydro-[1,8]naphthyridine-3-carboxylic acid]",2 µg/mL,1 µg/mL,0.12 µg/mL,8 µg/mL,
